Measurements from patent EP1789452B1, “RELAXIN-CHIMERIC POLYPEPTIDES AND THEIR PREPARATION AND USE” (Janssen Pharmaceutica NV, priority 2004, dated 2006).

Experiments:
[1] = molecular target: T1, LGR7 (Homo sapiens, UniProt Q9HBX9); assay: Stimulation of β-galactosidase expression in SK-N-MC/β-gal cells; format: cell-based
T1 construct: Human LGR7 cDNA containing the complete coding region was PCR amplified from a human brain cDNA pool; expressed in transfected cells; host or cells: COS-7 (transient, live cells)
T1 sequence (Q9HBX9 1-757): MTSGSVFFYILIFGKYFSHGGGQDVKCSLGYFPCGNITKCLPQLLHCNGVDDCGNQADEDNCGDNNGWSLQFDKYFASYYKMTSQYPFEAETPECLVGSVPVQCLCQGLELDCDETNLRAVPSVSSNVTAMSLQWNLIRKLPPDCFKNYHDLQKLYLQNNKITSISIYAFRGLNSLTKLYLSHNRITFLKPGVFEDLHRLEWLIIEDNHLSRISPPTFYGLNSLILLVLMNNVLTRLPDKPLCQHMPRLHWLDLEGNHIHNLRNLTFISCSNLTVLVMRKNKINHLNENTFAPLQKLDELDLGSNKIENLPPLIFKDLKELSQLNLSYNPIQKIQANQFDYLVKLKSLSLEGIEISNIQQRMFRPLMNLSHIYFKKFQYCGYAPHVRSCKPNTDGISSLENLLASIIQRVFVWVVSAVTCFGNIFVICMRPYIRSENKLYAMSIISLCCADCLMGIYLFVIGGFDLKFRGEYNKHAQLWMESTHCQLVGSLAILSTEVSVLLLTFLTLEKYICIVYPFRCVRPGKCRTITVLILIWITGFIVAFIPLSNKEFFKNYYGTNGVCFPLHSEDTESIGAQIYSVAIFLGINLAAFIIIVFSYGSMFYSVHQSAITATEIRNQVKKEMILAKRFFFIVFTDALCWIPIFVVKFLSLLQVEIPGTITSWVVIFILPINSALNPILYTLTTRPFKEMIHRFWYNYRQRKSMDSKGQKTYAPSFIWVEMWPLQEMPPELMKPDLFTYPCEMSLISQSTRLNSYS

[2] = molecular target: T2, LGR8 (Homo sapiens, UniProt Q8WXD0); assay: as above; format: cell-based; conditions: highest concentration tested 1 µM
T2 construct: Human LGR8 cDNA containing the complete coding region was PCR amplified from a human testis cDNA pool; expressed in transfected cells
T2 sequence (Q8WXD0 whole entry): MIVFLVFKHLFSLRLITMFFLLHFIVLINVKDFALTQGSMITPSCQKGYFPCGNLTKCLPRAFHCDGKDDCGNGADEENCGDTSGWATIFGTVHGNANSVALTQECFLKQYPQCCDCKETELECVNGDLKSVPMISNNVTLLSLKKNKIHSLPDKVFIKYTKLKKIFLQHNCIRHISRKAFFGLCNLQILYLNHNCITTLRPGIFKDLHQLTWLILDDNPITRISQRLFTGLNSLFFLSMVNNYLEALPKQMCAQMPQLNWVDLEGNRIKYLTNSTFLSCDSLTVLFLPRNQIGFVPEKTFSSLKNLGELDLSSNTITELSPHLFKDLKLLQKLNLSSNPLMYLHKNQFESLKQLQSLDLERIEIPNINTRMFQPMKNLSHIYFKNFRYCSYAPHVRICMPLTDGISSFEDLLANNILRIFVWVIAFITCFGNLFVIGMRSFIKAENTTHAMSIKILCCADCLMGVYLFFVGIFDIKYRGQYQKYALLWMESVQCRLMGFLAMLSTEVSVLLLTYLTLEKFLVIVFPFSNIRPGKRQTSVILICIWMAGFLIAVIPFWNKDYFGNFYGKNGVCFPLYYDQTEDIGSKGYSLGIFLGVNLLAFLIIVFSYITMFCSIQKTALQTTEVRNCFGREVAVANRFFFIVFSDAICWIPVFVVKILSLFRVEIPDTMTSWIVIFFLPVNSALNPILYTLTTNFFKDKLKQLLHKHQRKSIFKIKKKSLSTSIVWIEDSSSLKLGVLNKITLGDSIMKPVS

## CC[C@H](C)[C@H](NC(=O)[C@H](Cc1ccccc1)NC(=O)[C@H](CCC(=O)O)NC(=O)[C@H](CCCNC(=N)N)NC(=O)CNC(=O)[C@H](CS)NC(=O)[C@H](CC(C)C)NC(=O)[C@H](CCCNC(=N)N)NC(=O)[C@@H](NC(=O)CNC(=O)[C@H](Cc1ccc(O)cc1)NC(=O)[C@@H]1CCCN1C(=O)[C@H](C)NC(=O)[C@H](C)NC(=O)[C@@H](N)CCCNC(=N)N)C(C)C)C(=O)N[C@@H](CCCNC(=N)N)C(=O)N[C@@H](C)C(=O)N[C@H](C(=O)N[C@H](C(=O)N[C@@H](Cc1ccccc1)C(=O)N[C@H](C(=O)N[C@@H](CS)C(=O)NCC(=O)NCC(=O)N[C@@H](CO)C(=O)N[C@@H](CCCNC(=N)N)C(=O)N[C@@H](Cc1c[nH]c2ccccc12)C(=O)O)[C@@H](C)O)[C@@H](C)CC)C(C)C [relaxin-3 B-chain]
[1]
  activation of LGR7 expressing cells: did not activate
[2]
  activity towards LGR8: did not activate
